Test results published in EP0260814B1, “Dopamine-Beta-hydroxylase inhibitors” (SMITHKLINE BEECHAM CORPORATION, priority 1986, dated 1988).
pIC50: −log10 of the molar value.

How the values were obtained:
[1] = target: T1, DBH (Homo sapiens, UniProt P09172); details: reported by Runti et al.; cited from earlier work
T1 sequence (P09172 1-617): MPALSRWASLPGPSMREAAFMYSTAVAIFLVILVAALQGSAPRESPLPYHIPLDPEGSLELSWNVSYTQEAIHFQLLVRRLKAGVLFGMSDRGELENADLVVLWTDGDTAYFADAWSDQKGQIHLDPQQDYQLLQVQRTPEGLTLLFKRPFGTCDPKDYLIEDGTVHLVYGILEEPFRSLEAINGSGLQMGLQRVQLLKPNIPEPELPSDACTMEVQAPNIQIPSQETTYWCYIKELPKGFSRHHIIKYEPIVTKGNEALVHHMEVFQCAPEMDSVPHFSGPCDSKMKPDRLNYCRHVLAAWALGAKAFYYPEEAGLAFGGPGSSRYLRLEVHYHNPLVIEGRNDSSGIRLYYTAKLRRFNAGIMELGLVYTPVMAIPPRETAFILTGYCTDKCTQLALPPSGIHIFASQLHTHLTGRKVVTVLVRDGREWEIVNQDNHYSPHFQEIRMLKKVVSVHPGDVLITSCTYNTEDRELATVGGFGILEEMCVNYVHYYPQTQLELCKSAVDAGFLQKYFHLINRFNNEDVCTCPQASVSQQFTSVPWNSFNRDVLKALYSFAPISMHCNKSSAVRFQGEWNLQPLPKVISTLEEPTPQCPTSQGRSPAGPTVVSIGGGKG

[2] = study comparing effects on blood pressure of hydroxy compounds and their methoxy analogues; format: in vivo; details: for blood pressure reductions: equivalent doses of hydroxy compound and methoxy analogue
Excerpt: In a study conducted to compare the effects on blood pressure of compounds wherein Y is -OH, X is 3-F or 3,5-F₂ and n is 1 to their Y is -OCH₃ analogues, the maximum blood pressure reduction observed after administration of the hydroxy compound in which X is 3-F was 18%, whereas one-half the dose of its methoxy analogue produced a 35% blood pressure reduction. Also, equivalent doses of the compound in which Y is -OH, X is 3,5-F₂, and n is 1 and its Y is -OCH₃ analogue produced, respectively, 20% and 35% blood pressure reductions.

[3] = target: T1, DBH; assay: in vitro DBH inhibition: conversion of tyramine to octopamine in the presence of DBH, absorbance at 330 nm; format: biochemical
Protocol: Octopamine was assayed following sodium periodate oxidation to p-hydroxybenzaldehyde by measuring spectrophotometric absorbance at 330 nm. […] Melting points (mp) are given in °C. […]

[4] = system: peripheral dopamine and norepinephrine levels; assay: effects on peripheral dopamine and norepinephrine levels (procedure of DaPrada and Zürcher); format: in vivo, Spontaneously hypertensive rats
Protocol: Spontaneously hypertensive rats were dosed twice, the second dose being about 18 hr after the first, and were sacrificed about 2 hr after the second dose. […] In Table II, R= -H, Y= -OH and n=1; in Table II A, R= -H, Y= -OCH₃, and n=1.

**Q.** Which “inhibitory activity relative to fusaric acid” value [1] does the source give for `O=C(O)c1ccc(Cc2ccc(O)cc2)cn1` [phenypicolinic acid] here?
**A.** twice the inhibitory activity of fusaric acid

**Q.** Which “maximum blood pressure reduction” value ([2]; after administration of the hydroxy compound, dose not given) does the source give for `Oc1ccc(Cn2ccnc2S)cc1F` [n=1, X=3-F, Y=OH, R=H] here?
**A.** 18%

**Q.** And the pIC50 ([3]; molar concentration of compound at which DBH activity was halved, read-out: IC₅₀)?
**A.** 5.85

**Q.** With `COc1c(F)cc(Cn2ccnc2S)cc1F` [Example 6, 1-(3,5-Difluoro-4-methoxybenzyl)-2-mercaptoimidazole] as the compound, how does the “DA/NE Ratio” value ([4]; Table IIA (R= -H, Y= -OCH₃, n=1), dose not given) read?
**A.** .204^(1)

**Q.** And the “DA” value ([4]; Table IIA (R= -H, Y= -OCH₃, n=1), dose not given, dosed twice, sacrificed about 2 hr after second dose)?
**A.** 1.178 ± .087 µg/g

**Q.** And the blood pressure reductions ([2]; dose not given)?
**A.** 35%

**Q.** Which “DA/NE Ratio” value ([4]; Table II (for X= compounds: R= -H, Y= -OH, n=1), 50 mg/kg, dosed twice) does the source give for `Oc1c(F)cc(Cn2ccnc2S)cc1F` [n=1, X=3,5-F₂, Y=OH, R=H] here?
**A.** .0824 .0128^(2)

**Q.** What about the “DA (µg/g)” value ([4]; Table II (for X= compounds: R= -H, Y= -OH, n=1), 50 mg/kg, dosed twice, sacrificed about 2 hr after second dose) of the same compound?
**A.** .708 .068^(1) µg/g

**Q.** What about the blood pressure reductions ([2]; dose not given) of the same compound?
**A.** 20%

**Q.** For `COc1ccc(Cn2ccnc2S)cc1F` [Example 5, 1-(3-Fluoro-4-methoxybenzyl)-2-mercaptoimidazole], which blood pressure reduction ([2]; one-half the dose of the hydroxy compound in which X is 3-F) is on record?
**A.** 35%

**Q.** And the inhibition at 100 µM ([3]; at 10⁻⁴ molar concentration)?
**A.** 67%
